The nature of data set [1]: Antiproliferative activity against human HL60 cells assessed as growth inhibition at 5 uM after 72 hrs by luminescent cell viability assay. Particulars: HL-60, 72 h, read-out: GI. The data set is classed as functional.
Data set [2] relates to K562. Briefly: Antiproliferative activity against human K562 cells assessed as growth inhibition at 5 uM after 72 hrs by luminescent cell viability assay. The data set is classed as functional. Particulars: K562, 72 h, read-out: GI.
For data set [3], the target named is MAP kinase-interacting serine/threonine-protein kinase 1 (Homo sapiens) (UniProt Q9BUB5). The data set can be described thus: Inhibition of MNK1 (unknown origin) at 10 uM.
Data set [4] relates to MV4-11. Briefly: Antiproliferative activity against human MV4-11 cells assessed as growth inhibition at 5 uM after 72 hrs by luminescent cell viability assay. The data set is classed as functional. Particulars: MV4-11, 72 h, read-out: GI.
Data set [5] in a line: Antiproliferative activity against human THP1 cells after 72 hrs by luminescent cell viability assay. The data set is classed as functional, cell-based. Particulars: THP-1, 72 h.
The target of data set [6] is Receptor-type tyrosine-protein kinase FLT3 (Homo sapiens, UniProt P36888, D835Y). The data set can be described thus: Inhibition of recombinant FLT3 D835Y mutant (unknown origin) by TR-FRET assay. (In general: In TR-FRET formats the signal depends on donor and acceptor labels being close together.)
The nature of data set [7]: Antiproliferative activity against human THP1 cells assessed as growth inhibition at 5 uM after 72 hrs by luminescent cell viability assay. The data set is classed as functional. Particulars: THP-1, 72 h, read-out: GI.
Data set [8] has as its target Receptor-type tyrosine-protein kinase FLT3 (Homo sapiens, UniProt P36888, ITD). The data set can be described thus: Inhibition of recombinant FLT3 ITD mutant (unknown origin) by RBC kinase assay.
In data set [9] the target is T1, Receptor-type tyrosine-protein kinase FLT3 (Homo sapiens, UniProt P36888).
T1 sequence (P36888 whole entry): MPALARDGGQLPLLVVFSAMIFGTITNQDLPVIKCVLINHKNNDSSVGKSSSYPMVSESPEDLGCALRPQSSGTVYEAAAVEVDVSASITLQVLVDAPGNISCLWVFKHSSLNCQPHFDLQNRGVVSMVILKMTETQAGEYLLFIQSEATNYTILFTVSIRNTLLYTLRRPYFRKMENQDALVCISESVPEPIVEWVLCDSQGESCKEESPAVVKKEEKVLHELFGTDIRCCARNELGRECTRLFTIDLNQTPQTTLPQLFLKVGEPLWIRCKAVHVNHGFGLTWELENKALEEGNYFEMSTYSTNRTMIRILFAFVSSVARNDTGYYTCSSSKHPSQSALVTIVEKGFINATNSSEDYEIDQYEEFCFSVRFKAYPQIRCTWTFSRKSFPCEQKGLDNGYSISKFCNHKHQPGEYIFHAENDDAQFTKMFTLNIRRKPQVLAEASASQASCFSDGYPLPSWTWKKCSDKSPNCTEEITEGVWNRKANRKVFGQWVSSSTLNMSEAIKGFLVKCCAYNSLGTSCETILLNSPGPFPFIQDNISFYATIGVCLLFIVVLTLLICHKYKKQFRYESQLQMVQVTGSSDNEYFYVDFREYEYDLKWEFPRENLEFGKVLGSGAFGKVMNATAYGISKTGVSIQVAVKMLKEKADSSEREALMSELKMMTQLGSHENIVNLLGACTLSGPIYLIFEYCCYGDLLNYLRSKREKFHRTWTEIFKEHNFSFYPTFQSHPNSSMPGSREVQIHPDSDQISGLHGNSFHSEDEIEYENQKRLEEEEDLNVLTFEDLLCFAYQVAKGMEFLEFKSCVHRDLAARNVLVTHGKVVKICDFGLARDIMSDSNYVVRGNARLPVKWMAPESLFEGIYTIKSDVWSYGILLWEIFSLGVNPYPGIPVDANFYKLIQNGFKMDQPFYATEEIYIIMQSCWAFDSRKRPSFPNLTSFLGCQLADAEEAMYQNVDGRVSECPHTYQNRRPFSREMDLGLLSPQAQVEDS
Briefly: Inhibition of recombinant FLT3 (unknown origin) by TR-FRET assay.

The test system of data set [10] is MV4-11. Briefly: Antiproliferative activity against human MV4-11 cells after 72 hrs by luminescent cell viability assay. The class given is functional, cell-based. Particulars: MV4-11, 72 h.
A short description of data set [11]: Antiproliferative activity against human HEK293T cells assessed as growth inhibition at 5 uM after 72 hrs by luminescent cell viability assay. The data set is classed as cell-based, HEK-293T. Particulars: read-out: GI.
For data set [12], the target named is MAP kinase-interacting serine/threonine-protein kinase 2 (Homo sapiens) (UniProt Q9HBH9). Briefly: Inhibition of MNK2 (unknown origin) at 10 uM.

The values below come from ChEMBL document CHEMBL3352474, “Design, synthesis and biological evaluation of FLT3 covalent inhibitors with a resorcylic acid core” (Bioorg Med Chem, 2014).

Molecules are shown by their SMILES. Bounds are passed on as bounds.

MAP kinase-interacting serine/threonine-protein kinase 1 (Homo sapiens), sequence (Q9BUB5 whole entry, looked up): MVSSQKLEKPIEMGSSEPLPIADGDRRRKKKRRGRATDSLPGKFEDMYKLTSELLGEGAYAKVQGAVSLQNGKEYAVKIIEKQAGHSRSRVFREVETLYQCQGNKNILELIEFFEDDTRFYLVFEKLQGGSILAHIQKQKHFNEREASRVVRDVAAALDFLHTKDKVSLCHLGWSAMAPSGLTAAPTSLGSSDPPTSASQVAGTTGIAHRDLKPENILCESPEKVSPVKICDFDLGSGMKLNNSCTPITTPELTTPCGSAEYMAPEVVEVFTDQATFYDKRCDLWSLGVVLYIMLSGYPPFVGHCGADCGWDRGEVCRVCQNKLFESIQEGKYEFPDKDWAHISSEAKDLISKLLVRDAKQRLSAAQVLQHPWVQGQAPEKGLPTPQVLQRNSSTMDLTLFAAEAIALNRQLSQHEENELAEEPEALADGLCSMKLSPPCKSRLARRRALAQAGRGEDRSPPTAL
MAP kinase-interacting serine/threonine-protein kinase 2 (Homo sapiens), sequence (Q9HBH9 whole entry, looked up): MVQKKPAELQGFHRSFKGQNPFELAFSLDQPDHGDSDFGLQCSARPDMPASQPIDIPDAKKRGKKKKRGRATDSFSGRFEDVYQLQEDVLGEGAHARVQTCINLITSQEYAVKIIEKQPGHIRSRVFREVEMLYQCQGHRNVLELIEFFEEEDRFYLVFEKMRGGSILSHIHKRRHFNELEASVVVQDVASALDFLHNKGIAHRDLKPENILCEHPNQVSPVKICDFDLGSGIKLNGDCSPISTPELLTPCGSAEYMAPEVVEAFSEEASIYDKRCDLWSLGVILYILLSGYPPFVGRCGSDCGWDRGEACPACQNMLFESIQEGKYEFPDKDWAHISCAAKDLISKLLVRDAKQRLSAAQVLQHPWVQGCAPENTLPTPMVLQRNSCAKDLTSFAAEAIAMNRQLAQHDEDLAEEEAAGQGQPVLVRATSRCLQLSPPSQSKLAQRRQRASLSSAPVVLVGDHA

As usually defined, the IC50 is the concentration that gives 50% inhibition. As to `C=CC(=O)NC/C=C/c1cc(OCCCN2CCOCC2)cc(O)c1C(=O)OC(C)C`, the inhibition of growth at 5 µM in data set [1] is 8.1%; in [2] it was 23%; in [4], 73.9%; in data set [7] it was 9.1%. Further, the results for the inhibition in data set [3] and in [12] were 8% and 6.5%, respectively. For the same compound, the IC50 in [5] came to 20.7 µM; in [6], 2.81 µM; in data set [8], 0.5 µM; in data set [9], 9.61 µM; in data set [10] it was 3.74 µM. In addition, in data set [11], the inhibition at 72 h, 5 µM amounted to 26.5%.
Turning to `C=CS(=O)(=O)NC/C=C/c1cc(OC)cc(O)c1C(=O)OCc1ccc(F)cc1`, the inhibition of growth at 5 µM in [1] worked out at 10.9%; in data set [2] it was 52%; in data set [4], 70.5%; in data set [7], 41.7%. Moreover, the IC50 is 6.55 µM in [5]; not below 30 µM in [6]; not below 30 µM in [8]; not below 30 µM in data set [9]; 5.14 µM in [10]. For the same compound, the inhibition at 72 h, 5 µM in data set [11] was 0%.
With `C=CC(=O)NC/C=C/c1cc(OCCc2ccc(F)cc2)cc(O)c1C(=O)OC(C)C`, the inhibition of growth at 5 µM stood at 12.2% in data set [1], 18.5% in data set [2], 61.8% in data set [4] and 23.2% in [7]. Moreover, the values for the inhibition in [3] and in data set [12] were 5.6% and 1.1%, respectively. The IC50 is more than 10 µM in data set [5]; more than 30 µM in [6]; 8.31 µM in data set [8]; more than 30 µM in data set [9]; 4.45 µM in [10]. Moreover, the inhibition at 72 h, 5 µM in data set [11] worked out at 25.8%.
Consider `CC(C)OC(=O)c1c(O)cc(OCCCN2CCOCC2)cc1/C=C/CN1C(=O)C=CC1=O`, for which the inhibition of growth at 5 µM in data set [1] was 89.1%; in [2], 95.9%; in data set [4] it was 99.8%; in [7], 62.5%. In addition, the inhibition in [3] stood at 8%; in data set [12], 3.1%. Besides, the IC50 in data set [5] came to 7.88 µM; in [6] it was 0.94 µM; in [8] it was 0.98 µM; in data set [9], 0.15 µM; in data set [10], 1.89 µM. The inhibition at 72 h, 5 µM in data set [11] is 38.8%.
In the case of `CCN(CC)C/C=C/C(=O)NC/C=C/c1cc(OCCc2ccc(F)cc2)cc(O)c1C(=O)OC(C)C`, the inhibition of growth at 5 µM was found to be 36.8% in data set [1], 49.8% in data set [2], 84.9% in [4] and 25.7% in [7]. Moreover, the inhibition in data set [3] was found to be 7.8%; in data set [12] it was 0.8%. Moreover, the IC50 is more than 10 µM in data set [5]; more than 30 µM in [6]; 1.11 µM in [8]; more than 30 µM in data set [9]; 4.04 µM in [10]. Further, the inhibition at 72 h, 5 µM in [11] was determined as 28.5%.
As for `CCN(CC)C/C=C/C(=O)NC/C=C/c1cc(OC)cc(O)c1C(=O)O[C@@H](C)C(C)C`, the IC50 is not below 30 µM in data set [6], not below 30 µM in data set [8], not below 30 µM in data set [9] and more than 10 µM in data set [10].
Regarding `C=CC(=O)NC/C=C/c1cc(OC)cc(O)c1C(=O)O[C@@H](C)C(C)C`, the IC50 in [6] was not below 30 µM; in [8], not below 30 µM; in [9], not below 30 µM; in data set [10], more than 10 µM.
For the compound `C/C=C/C(=O)NC/C=C/c1cc(OC)cc(O)c1C(=O)OC(C)C`, the IC50 in data set [6] is not below 30 µM; in data set [8], not below 30 µM; in data set [9] it was not below 30 µM; in data set [10] it was more than 10 µM.
`CCN(CC)C/C=C/C(=O)NC/C=C/c1cc(OC)cc(O)c1C(=O)OC(C)C`: the inhibition in data set [3] is 12.5%; in data set [12], 5.2%. Also, the figures for the IC50 in data set [6], in data set [9] and in [10] were 15.9 µM, more than 30 µM and more than 10 µM, respectively.
For `C=CC(=O)NC/C=C/c1cc(OC)cc(O)c1C(=O)OC(C)C`, the IC50 in data set [6] was not below 30 µM; in data set [8], not below 30 µM; in data set [9] it was not below 30 µM; in [10], more than 10 µM.
Take `C=CS(=O)(=O)NCCCc1cc(OCCN2CCOCC2)cc(O)c1C(=O)OC(C)C`: the inhibition of growth at 5 µM in data set [1] is 2%; in data set [2], 13.8%; in data set [4], 20.4%; in [7], 0%. Further, the IC50 in [5] is more than 10 µM; in data set [6] it was 18.6 µM; in data set [8], 4.23 µM; in data set [9] it was more than 30 µM; in data set [10], 7.61 µM. Besides, in data set [11], the inhibition at 72 h, 5 µM amounted to 28.4%.
In the case of `COc1cc(O)c2c(c1)CCC[C@H](O)[C@H](O)C(=O)/C=C\C[C@H](C)OC2=O`, the inhibition of growth at 5 µM in data set [1] was found to be 86%; in data set [2] it was 69.7%; in data set [4] it was 99.7%; in data set [7] it was 81.5%. Further, the IC50 in data set [5] is 1.18 µM; in data set [6] it was 0.011 µM; in [8], 0.036 µM; in data set [9], 0.062 µM; in data set [10] it was 0.01 µM. For the same compound, the inhibition at 72 h, 5 µM in data set [11] turned out to be 74.6%.
Take `C=CS(=O)(=O)NC/C=C/c1cc(OC)cc(O)c1C(=O)OCC(C)c1ccccc1` (stereo unspecified): the inhibition of growth at 5 µM was found to be 9.5% in [1], 16.7% in data set [2], 9.6% in data set [4] and 5.6% in data set [7]. The IC50 in [5] was more than 10 µM; in data set [6], not below 30 µM; in data set [8], not below 30 µM; in data set [9], not below 30 µM; in data set [10] it was 7.73 µM. The inhibition at 72 h, 5 µM in data set [11] came to 22.5%.
For the compound `COc1cc(O)c(C(=O)OC(C)C)c(/C=C/CNC(C)=O)c1`, the IC50 is 14.2 µM in data set [6], more than 50 µM in data set [9] and more than 10 µM in data set [10].
As to `C=CS(=O)(=O)NC/C=C/c1cc(OC)cc(O)c1C(=O)OCC1CCCCC1`, the inhibition of growth at 5 µM was determined as 7.5% in data set [1], 27.4% in [2], 56.4% in data set [4] and 26.5% in data set [7]. The IC50 in data set [5] is 7.88 µM; in data set [6], not below 30 µM; in data set [8], not below 30 µM; in data set [9] it was not below 30 µM; in data set [10], 5.86 µM. The inhibition at 72 h, 5 µM in [11] is 31.2%.
Consider `C=CS(=O)(=O)NC/C=C/c1cc(OC)cc(O)c1C(=O)OCc1ccc(Br)cc1`, for which the inhibition of growth at 5 µM in data set [1] was 8.1%; in [2], 38.4%; in data set [4], 61%; in data set [7], 31.2%. Besides, the IC50 in [5] was 6.24 µM; in data set [6], not below 30 µM; in data set [8], not below 30 µM; in [9], not below 30 µM; in data set [10], 6.06 µM. In addition, the inhibition at 72 h, 5 µM in data set [11] worked out at 0%.
`C/C=C/C(=O)NC/C=C/c1cc(OCCc2ccc(F)cc2)cc(O)c1C(=O)OC(C)C`: the IC50 in data set [6] was not below 30 µM; in [8], not below 30 µM; in [9], not below 30 µM; in [10], more than 10 µM.
With `C/C=C/C(=O)NC/C=C/c1cc(OCCCN2CCOCC2)cc(O)c1C(=O)OC(C)C`, the figures for the inhibition in data set [3] and in data set [12] were 5.8% and 12.9%, respectively. The IC50 was 10.5 µM in [6], 16.2 µM in [9] and more than 10 µM in [10].
